Type in all cases: cell-based
Experiment [1] has as its system H358. The experiment can be described thus: Cell proliferation assay (Cell-titer Glo), H358. Particulars: Homo sapiens, NCI-H358, H358, KRAS G12C, 96 h. Here is the method:
(§1) Cells with different mutations were seeded in low-attachment transparent 96-well plates at the seeding densities shown in Table 1, and incubated overnight in a cell culture incubator. After the cells adhered, the test compounds were added to the 96-well plates at final concentrations of 20000 nM, 5000 nM, 1250 nM, 312.5 nM, 78.13 nM, 19.53 nM, 4.88 nM, 1.22 nM, 0.31 nM, 0 nM (the final concentration of DMSO was 0.25% in all wells). After culturing at 37°C for 96 h, 50 µL of Cell-titer Glo working solution was added to each well. The plates were shaken to mix and then incubated at room temperature for 10 min. Luminescence values were read on a multimode microplate reader, and the luminescence data were converted into percentage inhibition. The percentage of cell proliferation inhibition was calculated according to the following formula: Percentage inhibition = (1−(TestValue−Blank)/(MaxValue−Blank)) × 100% [formula]
(§2) ("Max value" is from the 0.25% DMSO control wells, "Blank" is from the blank medium control wells, and "Test Value" is from the compound-treated wells).
(§3) Curve fitting was performed using GraphPad Prism software to obtain IC50 (nM) values.

Experiment [2] concerns SW620. The experiment is described as follows: Cell proliferation assay (Cell-titer Glo), SW620. Particulars: Homo sapiens, SW-620, SW620, KRAS G12V, 96 h. Here is the method: as §1, §2, §3
Experiment [3] relates to AGS. The experiment can be described thus: Cell proliferation assay (Cell-titer Glo), AGS. As to conditions: KRAS G12D, 96 h. Here is the method: as §1, §2, §3
Experiment [4] deals with Mia-Paca2. The experiment can be described thus: Cell proliferation assay (Cell-titer Glo), Mia-Paca2. Particulars: 96 h. As for the experimental part: as §1, §2, §3
The mark [5] stands for this setting: Homo sapiens, MIA PaCa-2, Mia-Paca2, KRAS G12C.

As usually defined, the IC50 is the concentration that inhibits the measured activity by half. With `CCc1c(F)ccc2cc(O)cc(-c3ncc4c(N5CCCOCC5)nc(OCC5(CN6CCC(Oc7cnc(-c8cn([C@H](C(=O)N9C[C@H](O)C[C@H]9C(=O)N[C@@H](C)c9ccc(-c%10scnc%10C)cc9)C(C)C)nn8)cn7)CC6)CC5)nc4c3F)c12` [Compound 5, (2S,4R)-1-((S)-2-(4-(5-((1-((1-(((7-(8-ethyl-7-fluoro-3-hydroxynaphthalen-1-yl)-8-fluoro-4-(1,4-oxazepan-4-yl)pyrido[4,3-d]pyrimidin-2-yl)oxy)methyl)cyclopropyl)methyl)piperidin-4-yl)oxy)pyrazin-2-yl)-1H-1,2,3-triazol-1-yl)-3-methylbutanoyl)-4-hydroxy-N-((S)-1-(4-(4-methylthiazol-5-yl)phenyl)ethyl)pyrrolidine-2-carboxamide], the IC50 was found to be 55 nM in experiment [1], 34 nM in experiment [2] and 20 nM in experiment [3] (Homo sapiens).
As for `CCc1c(F)ccc2cc(O)cc(-c3ncc4c(N5CCCS(=O)(=O)C5)nc(OCC5(CN6CCC(Oc7cnc(-c8cn([C@H](C(=O)N9C[C@H](O)C[C@H]9C(=O)N[C@@H](C)c9ccc(-c%10scnc%10C)cc9)C(C)C)nn8)cn7)CC6)CC5)nc4c3F)c12` [Compound 7, (2S,4R)-1-((S)-2-(4-(5-((1-((1-(((4-(1,1-dioxido-1,3-thiazinan-3-yl)-7-(8-ethyl-7-fluoro-3-hydroxynaphthalen-1-yl)-8-fluoropyrido[4,3-d]pyrimidin-2-yl)oxy)methyl)cyclopropyl)methyl)piperidin-4-yl)oxy)pyrazin-2-yl)-1H-1,2,3-triazol-1-yl)-3-methylbutanoyl)-4-hydroxy-N-((S)-1-(4-(4-methylthiazol-5-yl)phenyl)ethyl)pyrrolidine-2-carboxamide], the IC50 came out at 31 nM in experiment [2] and 6.2 nM in experiment [3] (Homo sapiens).
In the case of `CCc1c(F)ccc2cc(O)cc(-c3ncc4c(N5CCC[C@](O)(CC#N)C5)nc(OCC5(CN6CCC(Oc7cnc(-c8cn([C@H](C(=O)N9C[C@H](O)C[C@H]9C(=O)N[C@@H](C)c9ccc(-c%10scnc%10C)cc9)C(C)C)nn8)cn7)CC6)CC5)nc4c3F)c12` [Compound 57, (2S,4R)-1-((S)-2-(4-(5-((1-((1-(((4-((S)-3-(cyanomethyl)-3-hydroxypiperidin-1-yl)-7-(8-ethyl-7-fluoro-3-hydroxynaphthalen-1-yl)-8-fluoropyrido[4,3-d]pyrimidin-2-yl)oxy)methyl)cyclopropyl)methyl)piperidin-4-yl)oxy)pyrazin-2-yl)-1H-1,2,3-triazol-1-yl)-3-methylbutanoyl)-4-hydroxy-N-((S)-1-(4-(4-methylthiazol-5-yl)phenyl)ethyl)pyrrolidine-2-carboxamide], the IC50 in experiment [1] came out at 20 nM; in experiment [2] it was 18 nM; in experiment [3] (Homo sapiens) it was 5 nM.
On to `CCc1c(F)ccc2cc(O)cc(-c3ncc4c(N5CCCC6(CCO6)C5)nc(OCC5(CN6CCN(c7ccc(-c8cn([C@H](C(=O)N9C[C@H](O)C[C@H]9C(=O)N[C@@H](C)c9ccc(-c%10scnc%10C)cc9)C(C)C)nn8)cn7)CC6)CC5)nc4c3F)c12` (stereo partly drawn) [Compound 111, (2S,4R)-1-((2S)-2-(4-(6-(4-((1-(((7-(8-ethyl-7-fluoro-3-hydroxynaphthalen-1-yl)-8-fluoro-4-(1-oxa-6-azaspiro[3.5]nonan-6-yl)pyrido[4,3-d]pyrimidin-2-yl)oxy)methyl)cyclopropyl)methyl)piperazin-1-yl)pyridin-3-yl)-1H-1,2,3-triazol-1-yl)-3-methylbutanoyl)-4-hydroxy-N-((S)-1-(4-(4-methylthiazol-5-yl)phenyl)ethyl)pyrrolidine-2-carboxamide], for which the values for the concentration for half-maximal inhibition (IC50) in experiment [1], in experiment [2] and in experiment [3] (Homo sapiens) were 56 nM, 43 nM and 30 nM, respectively.
Turning to `CCc1c(F)ccc2cc(O)cc(-c3ncc4c(N5CCCCC(=O)C5)nc(OCC5(CN6CCC(Oc7cnc(-c8cn([C@H](C(=O)N9C[C@H](O)C[C@H]9C(=O)N[C@@H](C)c9ccc(-c%10scnc%10C)cc9)C(C)C)nn8)cn7)CC6)CC5)nc4c3F)c12` [Compound 113, (2S,4R)-1-((S)-2-(4-(5-((1-((1-(((7-(8-ethyl-7-fluoro-3-hydroxynaphthalen-1-yl)-8-fluoro-4-(3-oxoazepan-1-yl)pyrido[4,3-d]pyrimidin-2-yl)oxy)methyl)cyclopropyl)methyl)piperidin-4-yl)oxy)pyrazin-2-yl)-1H-1,2,3-triazol-1-yl)-3-methylbutanoyl)-4-hydroxy-N-((S)-1-(4-(4-methylthiazol-5-yl)phenyl)ethyl)pyrrolidine-2-carboxamide], the IC50 in experiment [2] turned out to be 325 nM; in experiment [3] (Homo sapiens), 80 nM.
`CCc1c(F)ccc2cc(O)cc(-c3ncc4c(N5CCOC[C@@](C)(O)C5)nc(OCC5(CN6CCC(Oc7cnc(-c8cn([C@H](C(=O)N9C[C@H](O)C[C@H]9C(=O)N[C@@H](C)c9ccc(-c%10scnc%10C)cc9)C(C)C)nn8)cn7)CC6)CC5)nc4c3F)c12` [Compound 114, (2S,4R)-1-((S)-2-(4-(5-((1-((1-(((7-(8-ethyl-7-fluoro-3-hydroxynaphthalen-1-yl)-8-fluoro-4-((S)-6-hydroxy-6-methyl-1,4-oxazepan-4-yl)pyrido[4,3-d]pyrimidin-2-yl)oxy)methyl)cyclopropyl)methyl)piperidin-4-yl)oxy)pyrazin-2-yl)-1H-1,2,3-triazol-1-yl)-3-methylbutanoyl)-4-hydroxy-N-((S )-1-(4-(4-methylthiazol-5-yl)phenyl)ethyl)pyrrolidine-2-carboxamide]: the IC50 in experiment [2] worked out at 10 nM; in experiment [3] (Homo sapiens), 2.7 nM.
For `CCc1c(F)ccc2cc(O)cc(-c3ncc4c(N5CCOC[C@@](C)(O)C5)nc(OCC5(CN6CCC(Oc7cnc(-c8cn([C@H](C(=O)N9C[C@H](O)C[C@H]9C(=O)N[C@@H](CN(C)C)c9ccc(-c%10scnc%10C)cc9)C(C)C)nn8)cn7)CC6)CC5)nc4c3F)c12` [Compound 131, (2S,4R)-N-((R)-2-(dimethylamino)-1-(4-(4-methylthiazol-5-yl)phenyl)ethyl)-1-((S)-2-(4-(5-((1-((1-(((7-(8-ethyl-7-fluoro-3-hydroxynaphthalen-1-yl)-8-fluoro-4-((S)-6-hydroxy-6-methyl-1,4-oxazepan-4-yl)pyrido[4,3-d]pyrimidin-2-yl)oxy)methyl)cyclopropyl)methyl)piperidin-4-yl)oxy)pyrazin-2-yl)-1H-1,2,3-triazol-1-yl)-3-methylbutanoyl)-4-hydroxypyrrolidine-2-carboxamide], the IC50 came out at 8.4 nM in experiment [1], 15 nM in experiment [2], 5.3 nM in experiment [4] (setting [5]) and 4.4 nM in experiment [3] (Homo sapiens).
Turning to `CCc1c(F)ccc2cc(O)cc(-c3nc4c5c(nc(OCC6(CN7CCC(Oc8cnc(-c9cn([C@H](C(=O)N%10C[C@H](O)C[C@H]%10C(=O)N[C@@H](C)c%10ccc(-c%11scnc%11C)cc%10)C(C)C)nn9)cn8)CC7)CC6)nc5c3F)N3CCCC(C)(O)C3CO4)c12` (stereo partly drawn) [Compound 133, (2S,4R)-1-((2S)-2-(4-(5-((1-((1-(((5-(8-ethyl-7-fluoro-3-hydroxynaphthalen-1-yl)-4-fluoro-9-hydroxy-9-methyl-8,8a,9,10,11,12-hexahydro-7-oxa-1,3,6,12a-tetraazabenzo[4,5]cyclohepta[1,2,3-de]naphthalen-2-yl)oxy)methyl)cyclopropyl)methyl)piperidin-4-yl)oxy)pyrazin-2-yl)-1H-1,2,3-triazol-1-yl)-3-methylbutanoyl)-4-hydroxy-N-((S)-1-(4-(4-methylthiazol-5-yl)phenyl)ethyl)pyrrolidine-2-carboxamide], the IC50 in experiment [1] is 40 nM; in experiment [2], 36 nM; in experiment [4] (setting [5]), 26 nM; in experiment [3] (Homo sapiens) it was 15 nM.
Take “(2S,4R)-1-((2S)-2-(4-(5-((1-((1-(((7-(8-ethyl-7-fluoro-3-hydroxynaphthalen-1-yl)-8-fluoro-4-(3-h ydroxy-3-methylazepan-1-yl)pyrido[4,3-d]pyrimidin-2-yl)oxy)methyl)cyclopropyl)methyl)piperi din-4-yl)oxy)pyrazin-2-yl)-1H-1,2,3-triazol-1-yl)-3-methylbutanoyl)-4-hydroxy-N-((S)-1-(4-(4-methylthiazol-5-yl)phenyl)ethyl)pyrrolidine-2-carboxamide [Compound 134]”: the IC50 in experiment [4] (Mia-Paca2, KRAS G12C) was determined as 67 nM; in experiment [3] it was 34 nM.
